Results: ChEMBL document CHEMBL1201862, “PubChem BioAssay data set” (2004)
Structures can show the parent of a compound that is named as a salt.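 Tested at 5 concentrations; 48 h exposure; 96-well plates; endpoints linearly interpolated, else capped at highest concentration. GI50 = concentration required for 50% inhibition of growth.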 The source made the active and inactive calls. Cut-off read from the data, not from the text of the source: active = GI50 up to about 1.1 µM and inactive = higher.

Key:
Experiment in all cases: growth of human tumour cells (NCI), 48 h
CCRF-CEM = system: CCRF-CEM
SNB-19 = system: SNB-19
NCI/ADR-RES = system: NCI/ADR-RES
SW-620 = system: SW-620
NCI-H460 = system: NCI-H460
HOP-92 = system: HOP-92
SK-OV-3 = system: SK-OV-3
PC-3 = system: PC-3
SN12C = system: SN12C
HT-29 = system: HT-29
A549 = system: A549
OVCAR-3 = system: OVCAR-3
UACC-257 = system: UACC-257
SK-MEL-28 = system: SK-MEL-28
NCI-H522 = system: NCI-H522
SNB-75 = system: SNB-75
DU-145 = system: DU-145
NCI-H23 = system: NCI-H23
HCC 2998 = system: HCC 2998
IGROV-1 = system: IGROV-1

Measured: GI50

O=C(OCC1CC(C2(O)CCCCC2)C(=O)O1)c1ccccc1 (stereo unspecified)
inactive: CCRF-CEM > 100 µM | SNB-19 > 100 µM | NCI/ADR-RES > 100 µM | SW-620 > 100 µM | NCI-H460 71.8 µM | HOP-92 5.5 µM | SK-OV-3 > 100 µM | PC-3 > 100 µM | SN12C > 100 µM | HT-29 > 100 µM | A549 > 100 µM | OVCAR-3 > 100 µM | UACC-257 > 100 µM | SK-MEL-28 > 100 µM | NCI-H522 > 100 µM | SNB-75 > 100 µM | DU-145 > 100 µM | NCI-H23 > 100 µM | HCC 2998 > 100 µM | IGROV-1 > 100 µM

COc1cc2cc(C(=O)N3CC(CCl)c4c3cc([N+](=O)[O-])c3ccccc43)[nH]c2c(OC)c1OC (stereo unspecified)
inactive: CCRF-CEM 11.6 µM | SNB-19 87.7 µM | NCI/ADR-RES 9.06 µM | SW-620 > 100 µM | NCI-H460 4.68 µM | HOP-92 > 70.1 µM | SK-OV-3 > 48.5 µM | PC-3 10.9 µM | SN12C 79.6 µM | HT-29 40.6 µM | A549 1.8 µM | OVCAR-3 > 100 µM | UACC-257 > 100 µM | SK-MEL-28 > 100 µM | NCI-H522 24.7 µM | SNB-75 31.8 µM | DU-145 12.5 µM | NCI-H23 27.2 µM | HCC 2998 14.1 µM | IGROV-1 33 µM

Cc1ccc(CNc2ccc(Br)cc2)cc1
inactive: CCRF-CEM 11.5 µM | SNB-19 > 100 µM | NCI/ADR-RES 29.4 µM | SW-620 37.5 µM | NCI-H460 23.8 µM | HOP-92 15 µM | SK-OV-3 53.8 µM | PC-3 31.6 µM | SN12C 20.9 µM | HT-29 28.2 µM | A549 23.8 µM | OVCAR-3 34.8 µM | UACC-257 24.9 µM | SK-MEL-28 87.5 µM | NCI-H522 17.7 µM | SNB-75 37.3 µM | DU-145 90.4 µM | NCI-H23 50.2 µM | HCC 2998 20.6 µM

O=C(N[C@@H](c1ccccc1)[C@@H](O)C(=O)OCc1ccc([N+](=O)[O-])cc1)c1ccccc1
inactive: CCRF-CEM 67.6 µM | SNB-19 > 100 µM | NCI/ADR-RES > 100 µM | SW-620 > 100 µM | NCI-H460 > 100 µM | HOP-92 > 100 µM | SK-OV-3 > 100 µM | PC-3 > 100 µM | SN12C > 100 µM | HT-29 > 100 µM | A549 > 100 µM | OVCAR-3 > 100 µM | UACC-257 > 100 µM | NCI-H522 > 100 µM | SNB-75 44.1 µM | DU-145 > 100 µM | NCI-H23 > 100 µM | HCC 2998 > 100 µM | IGROV-1 > 100 µM

O=C1c2cccc3cc([N+](=O)[O-])cc(c23)C(=O)N1c1ccc(OCCN2CCCC2)cc1
inactive: CCRF-CEM 18.6 µM | SNB-19 26.1 µM | NCI/ADR-RES 32.5 µM | SW-620 17.2 µM | NCI-H460 3.26 µM | HOP-92 24.3 µM | PC-3 22.2 µM | SN12C > 100 µM | HT-29 11.7 µM | A549 3.3 µM | UACC-257 16.8 µM | SK-MEL-28 23 µM | NCI-H522 10.8 µM | SNB-75 22 µM | DU-145 23.3 µM | NCI-H23 17.6 µM | HCC 2998 17.1 µM | IGROV-1 12.3 µM

N[C@@H](Cc1ccc(N(CCCl)CCCl)cc1)C(=O)O [MELPHALAN HYDROCHLORIDE]
inactive: CCRF-CEM 2.85 µM | SNB-19 51.6 µM | NCI/ADR-RES 40.7 µM | SW-620 33.6 µM | NCI-H460 7.35 µM | HOP-92 36.8 µM | SK-OV-3 32 µM | PC-3 37.4 µM | SN12C 14.5 µM | HT-29 75.3 µM | A549 28.7 µM | OVCAR-3 42.3 µM | UACC-257 42.5 µM | SK-MEL-28 57.8 µM | NCI-H522 25.2 µM | SNB-75 34.7 µM | DU-145 47.2 µM | NCI-H23 23 µM | HCC 2998 43.3 µM

CCOP(=O)(OCC)/C(C#N)=C/c1cccn1C(C)C
inactive: SNB-19 > 100 µM | NCI/ADR-RES > 100 µM | SW-620 > 100 µM | NCI-H460 > 100 µM | HOP-92 > 100 µM | SK-OV-3 > 100 µM | PC-3 > 100 µM | SN12C > 100 µM | HT-29 > 100 µM | A549 > 100 µM | OVCAR-3 > 100 µM | UACC-257 > 100 µM | SK-MEL-28 > 100 µM | NCI-H522 > 100 µM | SNB-75 > 100 µM | DU-145 > 100 µM | NCI-H23 > 100 µM | HCC 2998 > 100 µM | IGROV-1 > 100 µM

N#CC1=C(S)N(C2OC(CO)C(O)C(O)C2O)C(c2ccccc2)=CC1c1ccco1 (stereo unspecified)
inactive: CCRF-CEM 88.9 µM | SNB-19 69.5 µM | NCI/ADR-RES > 100 µM | NCI-H460 28.2 µM | HOP-92 32.6 µM | PC-3 47.4 µM | SN12C 40.5 µM | HT-29 > 100 µM | A549 46.1 µM | OVCAR-3 > 100 µM | UACC-257 97.1 µM | SK-MEL-28 91.6 µM | NCI-H522 35.7 µM | SNB-75 16.6 µM | DU-145 > 100 µM | NCI-H23 59 µM | HCC 2998 28.4 µM | IGROV-1 > 100 µM

CCOC(=O)c1cc(-n2nnc3ccccc32)cn1C
inactive: CCRF-CEM > 10 µM | SNB-19 > 10 µM | NCI/ADR-RES > 10 µM | NCI-H460 > 10 µM | HOP-92 > 10 µM | SK-OV-3 > 10 µM | PC-3 > 10 µM | SN12C > 10 µM | HT-29 > 10 µM | A549 > 10 µM | OVCAR-3 > 10 µM | UACC-257 > 10 µM | SK-MEL-28 > 10 µM | NCI-H522 > 10 µM | SNB-75 8.59 µM | DU-145 > 10 µM | NCI-H23 > 10 µM | HCC 2998 > 10 µM | IGROV-1 > 10 µM

N#CC1=C2Sc3ccccc3N2[C@H](c2ccccc2)[C@H]2COC(=O)[C@@H]12
inactive: CCRF-CEM 7.45 µM | SNB-19 > 100 µM | NCI/ADR-RES > 100 µM | SW-620 35.2 µM | HOP-92 > 100 µM | SK-OV-3 > 100 µM | PC-3 > 100 µM | A549 > 100 µM | OVCAR-3 > 100 µM | UACC-257 > 100 µM | SK-MEL-28 > 100 µM | NCI-H522 11.2 µM | SNB-75 21.6 µM | DU-145 > 100 µM | NCI-H23 77.3 µM | HCC 2998 > 100 µM

CC(=O)N1N=C(c2ccc3ccccc3c2O)CC1C(=O)c1ccco1 (stereo unspecified)
inactive: CCRF-CEM 6.24 µM | NCI/ADR-RES 18.1 µM | SW-620 33.3 µM | NCI-H460 15.3 µM | HOP-92 16.6 µM | SK-OV-3 36.1 µM | PC-3 22.5 µM | SN12C 41.2 µM | HT-29 22.8 µM | A549 27.9 µM | OVCAR-3 20.3 µM | UACC-257 32.1 µM | SK-MEL-28 37.8 µM | NCI-H522 17.9 µM | SNB-75 14.3 µM | DU-145 47.9 µM | NCI-H23 27.9 µM | HCC 2998 16.3 µM | IGROV-1 12.7 µM

COc1cc(/C=C/C2=NN(c3cccc(S(=O)(=O)O)c3)C3(C2)SCC(=O)N3c2nc3ccccc3s2)cc(OC)c1OC (stereo unspecified)
inactive: CCRF-CEM 28.8 µM | SNB-19 31.9 µM | NCI/ADR-RES 42.7 µM | SW-620 61.7 µM | NCI-H460 37.5 µM | HOP-92 > 100 µM | PC-3 45.9 µM | SN12C 33.3 µM | HT-29 90.8 µM | A549 56.1 µM | UACC-257 95.7 µM | SK-MEL-28 > 100 µM | NCI-H522 18 µM | SNB-75 63.5 µM | DU-145 29.4 µM | NCI-H23 69.3 µM | HCC 2998 > 100 µM | IGROV-1 43.2 µM

CCOC(=O)c1c(OCC)[nH]c(=O)c(C(c2ccc(F)cc2)c2c(O)c(C(=O)OCC)c(OCC)[nH]c2=O)c1O
inactive: CCRF-CEM 33.1 µM | SNB-19 17.1 µM | NCI/ADR-RES 24.1 µM | SW-620 17.3 µM | NCI-H460 16.4 µM | HOP-92 1.46 µM | PC-3 15.3 µM | SN12C 14.7 µM | HT-29 16.1 µM | A549 14.8 µM | OVCAR-3 15.4 µM | UACC-257 14.8 µM | SK-MEL-28 11.9 µM | NCI-H522 18.6 µM | DU-145 11.1 µM | NCI-H23 19.5 µM | HCC 2998 18.1 µM | IGROV-1 14.9 µM

C[C@]12CC[C@@H]3c4ccc(O)cc4CC[C@H]3[C@@H]1CC[C@@H]2OC(=O)CCC1CCCC1 [ESTRADIOL CYPIONATE]
inactive: CCRF-CEM 17.8 µM | SNB-19 16.9 µM | NCI/ADR-RES 16.5 µM | SW-620 20.9 µM | NCI-H460 18.7 µM | HOP-92 23.1 µM | SK-OV-3 19.4 µM | PC-3 16.6 µM | SN12C 16.7 µM | HT-29 17.9 µM | A549 17.8 µM | OVCAR-3 16.4 µM | UACC-257 35 µM | SK-MEL-28 18.2 µM | NCI-H522 17.1 µM | DU-145 13.7 µM | NCI-H23 17.7 µM | HCC 2998 19.8 µM | IGROV-1 17.6 µM
